# Test results published in patent US4959372A, “Anti-hypertensive substituted 2-azabicyclooctane-3-carboxylic acids” (Adir et lie, priority 1987, dated 1990).
# System: converting enzyme (enzyme for conversion of angiotensin I to angiotensin II)
# Assay: Inhibition of the converting enzyme (angiotensin I / angiotensin II pressor response) after oral administration to unanesthetized dogs
# Format: in vivo
# Settings: 1 mg/kg
# Description: The compound of the invention for which E=H was tested by oral administration on unanesthetized dogs. The arterial blood pressure of the dogs was measured with a pressure gauge ("Statham P23 Db") after catheterization of the aorta via the femoral artery. The recording is carried out with a recording apparatus ("Brush 400"). Angiotensin I and angiotensin II are injected into the animals intravenously at doses of 0.5 and 0.10 γ/kg, respectively. A dose/activity curve is established for each of these hormones. The compound according to the invention for which E=H is then administered orally at a dose of 1 mg/kg. A second dose/activity curve is then established for angiotensin I and for angiotensin II after administration of the test product.
compound,measurement,setting,value
"Cl.NCCCC[C@H](N[C@@H](CCc1ccccc1)C(=O)O)C(=O)N1C2CCC(CC2)[C@H]1C(=O)O [compound of the invention for which E=H, (3S)-2-{(S)-N-[(S)-1-carboxy-3-phenylpropyl]lysyl}-3-carboxy-2-azabicyclo[2.2.2]octane hydrochloride]",percentage inhibition of the converting enzyme,15 minutes after administration,80%
same,percentage inhibition of the converting enzyme,30 minutes after administration,~100%
same,percentage inhibition of the converting enzyme,6 hours after administration,greater than 70%
